Test systems include MALME-3M melanoma; UO-31 renal; OVCAR-8 ovarian; LOX IMVI melanoma; CCRF-CEM leukemia; HL-60(TB) leukemia; HOP-62 NSCLC; EKVX NSCLC; COLO 205 colon; SK-OV-3 ovarian.
Holding throughout (assay): inhibition of tumour cell growth, NCI panel, 48 h

Molecules are shown by their SMILES. Values joined by “and” are separate entries in the source; they are usually repeats but may differ in a detail not shown here. Equal entries are not always repeated.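 Interpolation was linear, between the two tested concentrations surrounding the appropriate level; five concentrations were tested over 48 hours in 96-well plates. Abbreviation: GI50, concentration required for 50% inhibition of growth. TGI denotes the concentration required for complete inhibition of growth.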

For `COC(=O)c1c2c(c(C)[n+]([O-])c1C)C(=O)C=C(NCc1cccc(Cl)c1)C2=O`, the GI50 with MALME-3M melanoma is 136 nM; in the assay with UO-31 renal it was 1090 nM; with OVCAR-8 ovarian, 275 nM; with LOX IMVI melanoma, 68.7 nM; with CCRF-CEM leukemia, 444 nM; in the assay on HL-60(TB) leukemia it was 287 nM. In addition, the GI50 in the assay with HOP-62 NSCLC was 1130 nM; with EKVX NSCLC it was 762 nM; with COLO 205 colon, 292 nM; in the assay with SK-OV-3 ovarian, 1920 nM. The TGI came out at 309 nM with MALME-3M melanoma; 2350 nM in the assay with UO-31 renal; 1210 nM in the assay with OVCAR-8 ovarian; 1350 nM in the assay on LOX IMVI melanoma; 935 nM with HL-60(TB) leukemia; 2800 nM in the assay on HOP-62 NSCLC. For the same compound, the TGI with EKVX NSCLC was 2150 nM; in the assay on COLO 205 colon it was 961 nM; with SK-OV-3 ovarian, 5140 nM.
For the compound `COc1cc(OC)c(OC)cc1/C=C/c1cnnc2ccccc12`, the TGI in the assay on MALME-3M melanoma, with UO-31 renal, with OVCAR-8 ovarian, with LOX IMVI melanoma, with CCRF-CEM leukemia and with HL-60(TB) leukemia was greater than 10000 nM throughout. Besides, the TGI in the assay with HOP-62 NSCLC, in the assay on EKVX NSCLC, in the assay with COLO 205 colon and in the assay with SK-OV-3 ovarian was greater than 10000 nM in each case.
On to `Cc1ccc(S(=O)(=O)OC(COC(=O)c2ccccc2)C(OS(=O)(=O)c2ccc(C)cc2)C(OS(=O)(=O)c2ccc(C)cc2)C(COC(=O)c2ccccc2)OS(=O)(=O)c2ccc(C)cc2)cc1` (configuration not stated), for which the TGI in the assay with MALME-3M melanoma, in the assay with UO-31 renal, in the assay on OVCAR-8 ovarian, in the assay with LOX IMVI melanoma, in the assay with CCRF-CEM leukemia and in the assay with HL-60(TB) leukemia was greater than 100000 nM each time. Also, the TGI in the assay on HOP-62 NSCLC is greater than 100000 nM; in the assay on EKVX NSCLC it was greater than 100000 nM; with COLO 205 colon, greater than 100000 nM; with SK-OV-3 ovarian, greater than 10000 nM.
On to `C/C(CC(=O)Nc1ccccc1C)=N/NS(=O)(=O)c1ccc(C)cc1`, for which the TGI in the assay with MALME-3M melanoma, in the assay on UO-31 renal, with OVCAR-8 ovarian, in the assay on LOX IMVI melanoma, in the assay with CCRF-CEM leukemia and with HL-60(TB) leukemia was greater than 100000 nM each time. The TGI in the assay with HOP-62 NSCLC, in the assay on EKVX NSCLC, in the assay with COLO 205 colon and with SK-OV-3 ovarian was greater than 100000 nM each time.
Consider `C[C@H]1COCCN1c1cc(C2(S(=O)(=O)C3CC3)CC2)nc(-c2ccc(NC(=S)NCCO)cc2)n1`, for which the GI50 in the assay on MALME-3M melanoma was less than 10 nM; in the assay on UO-31 renal, 27.2 nM; in the assay with OVCAR-8 ovarian, 51.1 nM; in the assay on LOX IMVI melanoma, 30.6 nM; in the assay on CCRF-CEM leukemia, 32.3 nM; in the assay with HL-60(TB) leukemia, 702 nM. In addition, the GI50 in the assay with HOP-62 NSCLC is 48.6 nM; with EKVX NSCLC, 26.7 nM; in the assay with COLO 205 colon it was 17.2 nM; with SK-OV-3 ovarian, less than 10 nM. In addition, the TGI in the assay on MALME-3M melanoma is 43.7 nM; in the assay with UO-31 renal it was 524 nM; in the assay with OVCAR-8 ovarian, 3060 nM; in the assay on LOX IMVI melanoma, 12300 nM; in the assay on CCRF-CEM leukemia it was greater than 100000 nM; in the assay on HL-60(TB) leukemia, 28600 nM. Further, the TGI turned out to be 4370 nM in the assay with HOP-62 NSCLC, 3760 nM with EKVX NSCLC, 10400 nM in the assay with COLO 205 colon and 55.6 nM in the assay with SK-OV-3 ovarian.
Take `Nc1nc(SCc2ccccc2Cl)cc(C(=O)O)n1`: the TGI with MALME-3M melanoma, in the assay with UO-31 renal, in the assay with OVCAR-8 ovarian, in the assay with LOX IMVI melanoma, in the assay on CCRF-CEM leukemia and with HL-60(TB) leukemia was greater than 100000 nM throughout. For the same compound, the TGI with HOP-62 NSCLC, in the assay on EKVX NSCLC, in the assay on COLO 205 colon and in the assay with SK-OV-3 ovarian was greater than 100000 nM throughout.
Turning to `CC(=O)OC12c3ccccc3-c3ccccc3C1C(C(=O)O)C2C(=O)O` (configuration not stated), the TGI was 3090 nM in the assay with MALME-3M melanoma; greater than 10000 nM in the assay on UO-31 renal; greater than 10000 nM in the assay on OVCAR-8 ovarian; greater than 10000 nM with LOX IMVI melanoma; greater than 10000 nM in the assay on CCRF-CEM leukemia; greater than 10000 nM in the assay with HL-60(TB) leukemia. Besides, the TGI in the assay with HOP-62 NSCLC, in the assay with EKVX NSCLC, in the assay with COLO 205 colon and in the assay on SK-OV-3 ovarian was greater than 10000 nM in each case.
In the case of `O=C(c1ccco1)c1c(C(F)(F)F)n([O-])c2cc(C(F)(F)F)ccc2[n+]1=O`, the GI50 is 1490 nM with MALME-3M melanoma; 517 nM in the assay on UO-31 renal; 688 nM in the assay with OVCAR-8 ovarian; 299 nM in the assay on LOX IMVI melanoma; less than 43.4 nM with CCRF-CEM leukemia; 185 nM in the assay with HL-60(TB) leukemia. Further, the GI50 in the assay with HOP-62 NSCLC is 484 nM; in the assay on EKVX NSCLC, 859 nM; in the assay on COLO 205 colon, 475 nM; with SK-OV-3 ovarian, 1650 nM. The TGI in the assay on MALME-3M melanoma was 3430 nM; with UO-31 renal, 1020 nM; with LOX IMVI melanoma it was 730 nM; in the assay with CCRF-CEM leukemia, 352 nM; in the assay with HL-60(TB) leukemia, 484 nM; in the assay with HOP-62 NSCLC it was 1080 nM. For the same compound, the TGI was determined as 2360 nM with EKVX NSCLC, 2000 nM with COLO 205 colon and 3130 nM with SK-OV-3 ovarian.
As for `COc1ccc(C(=O)CC2=Nc3nnc(CCCCCCCc4nnc5n4C(=O)C(CC(=O)c4ccc(OC)cc4)=N5)n3C2=O)cc1`, the TGI in the assay on MALME-3M melanoma, in the assay on UO-31 renal, with OVCAR-8 ovarian, with LOX IMVI melanoma, with CCRF-CEM leukemia and with HL-60(TB) leukemia was greater than 100000 nM in each case. Besides, the TGI in the assay with HOP-62 NSCLC, in the assay with EKVX NSCLC, with COLO 205 colon and in the assay on SK-OV-3 ovarian was greater than 100000 nM in each case.
As for `CC(C)c1cccc(O)c(=O)c1`, the GI50 was 9.77 µg/mL in the assay with MALME-3M melanoma; 2.58 µg/mL with UO-31 renal; 2 µg/mL in the assay on OVCAR-8 ovarian; 1.94 µg/mL in the assay on LOX IMVI melanoma; 0.312 µg/mL in the assay with CCRF-CEM leukemia; 1.25 µg/mL with HL-60(TB) leukemia. Moreover, the GI50 with HOP-62 NSCLC is 5.57 µg/mL; in the assay on EKVX NSCLC, 1.45 µg/mL; with COLO 205 colon it was 1.21 µg/mL. Further, the TGI with MALME-3M melanoma is 48.3 µg/mL and > 81.2 µM; in the assay with UO-31 renal it was 35.5 µg/mL and > 71.1 µM; in the assay with LOX IMVI melanoma, > 75 µg/mL and > 100 µM; with HOP-62 NSCLC it was > 75 µg/mL and > 100 µM; in the assay with SK-OV-3 ovarian it was greater than 100000 nM.
Regarding `CCC1(OC(=O)CN)C(=O)OCc2c1cc1n(c2=O)Cc2cc3ccccc3nc2-1` (configuration not stated), the GI50 in the assay on MALME-3M melanoma is 196 nM; in the assay on OVCAR-8 ovarian, 40 nM and 22.7 nM; with LOX IMVI melanoma, 8.9 nM; in the assay on CCRF-CEM leukemia it was 1.16 nM; in the assay on HOP-62 NSCLC, 94.6 nM; in the assay on EKVX NSCLC, 164 nM. Besides, the GI50 in the assay on COLO 205 colon is 276 nM; in the assay with SK-OV-3 ovarian it was 22.4 nM. In addition, the TGI is 802 nM and 3750 nM with MALME-3M melanoma; 174 nM with UO-31 renal; 534 nM and 677 nM in the assay on CCRF-CEM leukemia; 84 nM and < 13.2 nM with HL-60(TB) leukemia; 285 nM with HOP-62 NSCLC; 17400 nM in the assay with EKVX NSCLC. Besides, the TGI was 667 nM in the assay with COLO 205 colon and greater than 54300 nM with SK-OV-3 ovarian.
As for `COC(=O)C(CC(=O)Nc1ccc(Cl)c(Cl)c1)C(=O)C(=O)Nc1ccc(Cl)c(Cl)c1` (configuration not stated), the TGI in the assay on MALME-3M melanoma, in the assay with UO-31 renal, in the assay on OVCAR-8 ovarian, in the assay with LOX IMVI melanoma, in the assay with CCRF-CEM leukemia and in the assay on HL-60(TB) leukemia was greater than 100000 nM each time. Moreover, the TGI in the assay on HOP-62 NSCLC, in the assay on EKVX NSCLC, in the assay on COLO 205 colon and in the assay with SK-OV-3 ovarian was greater than 100000 nM each time.
As to `Cc1cccc(C)c1N1C(=O)C(=O)C(c2nc3ccccc3s2)/C(=N/NC(=O)c2ccccc2O)C1=O` (configuration not stated), the TGI with MALME-3M melanoma was greater than 100000 nM; with UO-31 renal, 22400 nM; in the assay on OVCAR-8 ovarian, greater than 100000 nM; in the assay with LOX IMVI melanoma, greater than 100000 nM; in the assay with CCRF-CEM leukemia it was greater than 65300 nM; in the assay on HL-60(TB) leukemia, 43100 nM. Besides, the TGI in the assay on HOP-62 NSCLC is greater than 100000 nM; in the assay with EKVX NSCLC it was greater than 100000 nM; in the assay on COLO 205 colon it was greater than 86900 nM; in the assay with SK-OV-3 ovarian, greater than 100000 nM.
For `CO[C@H]1C[C@](C)(O)Cc2cc3c(c(O)c21)C(=O)c1c(O)cc2c(c1C3=O)O[C@@H]1O[C@@]2(C)[C@H](O)[C@@H](N(C)C)[C@@H]1O`, the TGI is 3440 nM and 13300 nM in the assay with MALME-3M melanoma; 2850 nM and 7080 nM in the assay with UO-31 renal; 3360 nM and 4970 nM in the assay on OVCAR-8 ovarian; 2150 nM and 2710 nM with LOX IMVI melanoma; 1220 nM and 4210 nM with CCRF-CEM leukemia; 797 nM and 1640 nM in the assay with HL-60(TB) leukemia. Further, the TGI in the assay with HOP-62 NSCLC was 2570 nM and 1500 nM; with EKVX NSCLC, 6500 nM and 13000 nM; in the assay on COLO 205 colon, 2970 nM and 8570 nM; with SK-OV-3 ovarian, 2450 nM and 3670 nM. Also, the GI50 was 1330 nM with UO-31 renal; 1070 nM with OVCAR-8 ovarian; 509 nM and 1060 nM with LOX IMVI melanoma; 180 nM with CCRF-CEM leukemia; 159 nM with HL-60(TB) leukemia; 480 nM with HOP-62 NSCLC. Moreover, the GI50 is 2400 nM with EKVX NSCLC, 1460 nM in the assay on COLO 205 colon and 749 nM in the assay with SK-OV-3 ovarian.
Regarding `CO/N=C(\C([O-])=N\[n+]1cnn(CC(=O)OC(C)(C)C)c1)c1csc(NC(c2ccccc2)(c2ccccc2)c2ccccc2)n1`, the TGI in the assay on MALME-3M melanoma, in the assay on UO-31 renal, with OVCAR-8 ovarian, in the assay with LOX IMVI melanoma, in the assay with CCRF-CEM leukemia and in the assay with HL-60(TB) leukemia was greater than 10000 nM in each case. Besides, the TGI in the assay on HOP-62 NSCLC, in the assay on EKVX NSCLC, with COLO 205 colon and in the assay on SK-OV-3 ovarian was greater than 10000 nM in each case.

(Values after PubChem BioAssay (NCI).)
